In the NIST ThermoML archive (doi:10.1016/j.jct.2018.10.015):

Assay: xn = mol fraction of the nth substance listed
Conditions: 101.3 kPa, Liquid; for viscosity: Concentric cylinders viscometry; for mass density: Vibrating tube method

CCCCn1cc[n+](C)c1C.O=S(=O)([N-]S(=O)(=O)C(F)(F)F)C(F)(F)F + CCOC(=O)OCC
Conditions	mass density [kg/m3]	viscosity [mPa·s]
293.15 K, x1 = 0.0996	1078.2	2.172
293.15 K, x1 = 0.199	1156.1	4.104
293.15 K, x1 = 0.299	1216.4	7.648
293.15 K, x1 = 0.3982	1263.9	13.1
293.15 K, x1 = 0.4985	1302.6	21.35
293.15 K, x1 = 0.5979	1334.6	33.14
293.15 K, x1 = 0.698	1361.8	49.42
293.15 K, x1 = 0.8	1385.4	71.45
293.15 K, x1 = 0.9012	1405.7	99.34
293.15 K, x1 = 1	1423.1	133.6
298.15 K, x1 = 0.0996	1072.9	1.989
298.15 K, x1 = 0.199	1151	3.665
298.15 K, x1 = 0.299	1211.4	6.684
298.15 K, x1 = 0.3982	1259	11.19
298.15 K, x1 = 0.4985	1297.7	17.82
298.15 K, x1 = 0.5979	1329.8	27.06
298.15 K, x1 = 0.698	1357.1	39.58
298.15 K, x1 = 0.8	1380.8	56.2
298.15 K, x1 = 0.9012	1401.1	76.75
298.15 K, x1 = 1	1418.5	101.82
303.15 K, x1 = 0.0996	1067.5	1.829
303.15 K, x1 = 0.199	1145.8	3.295
303.15 K, x1 = 0.299	1206.4	5.892
303.15 K, x1 = 0.3982	1254.1	9.654
303.15 K, x1 = 0.4985	1292.9	15.06
303.15 K, x1 = 0.5979	1325.1	22.44
303.15 K, x1 = 0.698	1352.4	32.24
303.15 K, x1 = 0.8	1376.1	44.95
303.15 K, x1 = 0.9012	1396.5	60.57
303.15 K, x1 = 1	1413.9	79.23
308.15 K, x1 = 0.0996	1062.1	1.689
308.15 K, x1 = 0.199	1140.6	2.979
308.15 K, x1 = 0.299	1201.3	5.234
308.15 K, x1 = 0.3982	1249.1	8.41
308.15 K, x1 = 0.4985	1288.1	12.88
308.15 K, x1 = 0.5979	1320.3	18.86
308.15 K, x1 = 0.698	1347.6	26.64
308.15 K, x1 = 0.8	1371.4	36.59
308.15 K, x1 = 0.9012	1391.9	48.62
308.15 K, x1 = 1	1409.3	62.74
313.15 K, x1 = 0.0996	1056.8	1.565
313.15 K, x1 = 0.199	1135.4	2.708
313.15 K, x1 = 0.299	1196.3	4.682
313.15 K, x1 = 0.3982	1244.2	7.39
313.15 K, x1 = 0.4985	1283.2	11.12
313.15 K, x1 = 0.5979	1315.5	16.03
313.15 K, x1 = 0.698	1342.9	22.31
313.15 K, x1 = 0.8	1366.8	30.21
313.15 K, x1 = 0.9012	1387.2	39.65
313.15 K, x1 = 1	1404.8	50.56
318.15 K, x1 = 0.0996	1051.4	1.456
318.15 K, x1 = 0.199	1130.3	2.472
318.15 K, x1 = 0.299	1191.3	4.215
318.15 K, x1 = 0.3982	1239.3	6.543
318.15 K, x1 = 0.4985	1278.4	9.697
318.15 K, x1 = 0.5979	1310.8	13.78
318.15 K, x1 = 0.698	1338.2	18.9
318.15 K, x1 = 0.8	1362.1	25.27
318.15 K, x1 = 0.9012	1382.6	32.78
318.15 K, x1 = 1	1400.2	41.38
323.15 K, x1 = 0.0996	1046	1.359
323.15 K, x1 = 0.199	1125.1	2.268
323.15 K, x1 = 0.299	1186.3	3.816
323.15 K, x1 = 0.3982	1234.4	5.835
323.15 K, x1 = 0.4985	1273.6	8.523
323.15 K, x1 = 0.5979	1306	11.95
323.15 K, x1 = 0.698	1333.6	16.18
323.15 K, x1 = 0.8	1357.5	21.39
323.15 K, x1 = 0.9012	1378	27.46
323.15 K, x1 = 1	1395.6	34.32
328.15 K, x1 = 0.0996	1040.5	1.271
328.15 K, x1 = 0.199	1119.8	2.09
328.15 K, x1 = 0.299	1181.2	3.473
328.15 K, x1 = 0.3982	1229.5	5.245
328.15 K, x1 = 0.4985	1268.7	7.565
328.15 K, x1 = 0.5979	1301.3	10.47
328.15 K, x1 = 0.698	1328.8	14.02
328.15 K, x1 = 0.8	1352.8	18.35
328.15 K, x1 = 0.9012	1373.4	23.33
328.15 K, x1 = 1	1391	28.91
